Assay results as given in ChEMBL document CHEMBL2010645, “N-Caffeoyl serotonin as selective COX-2 inhibitor” (Bioorg Med Chem Lett, 2012).

Experiments:
[1] = biological target: T1, Prostaglandin G/H synthase 2 (Homo sapiens) (UniProt P35354); assay: Inhibition of COX2 at 400 uM after 5 mins by spectrophotometric analysis
T1 sequence (whole entry): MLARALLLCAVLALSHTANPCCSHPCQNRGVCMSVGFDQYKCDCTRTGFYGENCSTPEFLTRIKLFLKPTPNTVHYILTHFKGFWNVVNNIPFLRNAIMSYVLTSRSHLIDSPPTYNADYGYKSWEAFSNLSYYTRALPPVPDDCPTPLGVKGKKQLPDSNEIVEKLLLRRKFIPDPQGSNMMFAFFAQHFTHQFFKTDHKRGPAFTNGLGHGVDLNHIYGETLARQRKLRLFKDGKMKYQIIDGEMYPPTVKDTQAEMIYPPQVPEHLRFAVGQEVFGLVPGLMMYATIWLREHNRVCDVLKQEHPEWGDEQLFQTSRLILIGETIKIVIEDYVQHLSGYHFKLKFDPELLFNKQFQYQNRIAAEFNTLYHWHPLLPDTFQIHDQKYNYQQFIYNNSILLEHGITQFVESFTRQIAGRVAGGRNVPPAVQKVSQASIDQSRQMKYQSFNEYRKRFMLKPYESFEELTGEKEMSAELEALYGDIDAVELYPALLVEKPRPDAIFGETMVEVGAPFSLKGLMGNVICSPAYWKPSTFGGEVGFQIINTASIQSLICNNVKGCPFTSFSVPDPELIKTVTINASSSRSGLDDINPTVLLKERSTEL

[2] = biological target: T2, Prostaglandin G/H synthase 1 (Homo sapiens, UniProt P23219); assay: Inhibition of COX1 at 400 uM after 5 mins by spectrophotometric analysis
T2 sequence (P23219 whole entry): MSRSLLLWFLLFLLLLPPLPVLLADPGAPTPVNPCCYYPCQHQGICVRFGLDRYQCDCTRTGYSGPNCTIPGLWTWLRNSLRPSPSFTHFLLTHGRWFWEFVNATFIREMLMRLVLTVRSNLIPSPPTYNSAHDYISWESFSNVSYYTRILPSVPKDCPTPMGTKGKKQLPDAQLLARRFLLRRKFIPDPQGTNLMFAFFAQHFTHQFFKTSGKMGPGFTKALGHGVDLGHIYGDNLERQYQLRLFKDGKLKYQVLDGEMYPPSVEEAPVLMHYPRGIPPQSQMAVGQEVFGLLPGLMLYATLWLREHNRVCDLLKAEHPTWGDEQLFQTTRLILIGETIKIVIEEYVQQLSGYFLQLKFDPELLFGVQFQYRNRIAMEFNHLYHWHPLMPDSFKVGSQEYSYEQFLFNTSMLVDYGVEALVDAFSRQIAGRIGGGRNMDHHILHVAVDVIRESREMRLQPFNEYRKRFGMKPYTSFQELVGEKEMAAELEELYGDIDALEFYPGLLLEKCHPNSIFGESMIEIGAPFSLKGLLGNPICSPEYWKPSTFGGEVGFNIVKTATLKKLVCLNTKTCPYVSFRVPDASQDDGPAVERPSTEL

[3] = biological target: T2, Prostaglandin G/H synthase 1; assay: Inhibition of COX1 after 5 mins by spectrophotometric analysis
[4] = biological target: T3, Prostaglandin G/H synthase 2 (Homo sapiens, UniProt P35354); assay: Inhibition of COX2 after 5 mins by spectrophotometric analysis
T3 sequence (P35354 whole entry): T1 sequence (whole entry)

[5] = biological target: T3, Prostaglandin G/H synthase 2; assay: Uncompetitive inhibition of COX2 by Lineweaver-Burk plot analysis

inhibition [1]	inhibition [2]	IC50 [3]	IC50 [4]	Ki [5]	SMILES
19.3%	–	–	–	–	CC(=O)Oc1ccccc1C(=O)O
18.8%	2.7%	–	–	–	COc1cc(/C=C/C(=O)NCCc2c[nH]c3ccc(O)cc23)ccc1O
6.5%	21.3%	–	–	–	COc1ccc(/C=C/C(=O)NCCc2c[nH]c3ccc(O)cc23)cc1
8%	7%	–	–	–	COc1ccc(/C=C/C(=O)NCCc2c[nH]c3ccc(O)cc23)cc1O
18.2%	29.9%	–	–	–	COc1ccc(/C=C/C(=O)NCCc2c[nH]c3ccc(O)cc23)cc1OC
13.9%	12.5%	–	–	–	O=C(/C=C/c1ccc(O)cc1)NCCc1c[nH]c2ccc(O)cc12
8.2%	18.2%	–	–	–	O=C(/C=C/c1ccccc1)NCCc1c[nH]c2ccc(O)cc12
–	–	> 400 µM	–	–	O=C(O)/C=C/c1ccc(O)c(O)c1 [CAFFEIC ACID]
70.5%	40.6%	> 400 µM	42.5 µM	65.5 µM	O=C(/C=C/c1ccc(O)c(O)c1)NCCc1c[nH]c2ccc(O)cc12 [N-CAFFEOYLSEROTONIN]
27.2%	44.9%	> 400 µM	> 400 µM	–	COc1cc(/C=C/C(=O)NCCc2c[nH]c3ccc(O)cc23)cc(OC)c1O [N-SINAPOYL SEROTONIN]
–	–	39.2 µM	28 µM	–	COc1cc(/C=C/C(=O)O)cc(OC)c1O [SINAPINATE]

SMILES	inhibition [1]	inhibition [2]	IC50 [3]	IC50 [4]	Ki [5]
NCCc1c[nH]c2ccc(O)cc12 [SEROTONIN]	–	–	> 400 µM	> 400 µM	–
